Source: patent US11091496B2, “Opioid ketal compounds and uses thereof” (priority 2013, dated 2021)
Read-outs that look alike come from different tables or passages of the source.

Tests used:
[1] = type: physicochemical; settings: 0.1 N HCl 37° C.; for % Oxycodone, % IVA-IVD in hydrolysis mixture: total 1 mg/ml; for Oxycodone in hydrolysis mixture: from isomer IVC tested separately; for Oxycodone in hydrolysis mixture / % Oxycodone, % IVD in hydrolysis mixture / % Oxycodone, % Ketal a, b in hydrolysis mixture / % Oxycodone, % Ketal A, B in hydrolysis mixture: 1 mg/ml; for Oxycodone in hydrolysis mixture / % Oxycodone, % IVD in hydrolysis mixture: normalized; for % Oxycodone, % IVD in hydrolysis mixture: isomer IVD tested separately; for % Oxycodone, % Ketal a, b in hydrolysis mixture: mixture of oxycodone 3,5-octanediol ketals; for % Oxycodone, % Ketal A, B in hydrolysis mixture: mixture of oxycodone cis 1,2-cyclohexanedimethanol ketals
[2] = Hydrolysis in Coca Cola, pH 4 buffer or pH 7 buffer, 3 days; type: physicochemical; settings: 1 mg/ml; for Hydrolysis to Oxycodone: after 3 days
[3] = Hydrolysis in fresh EDTA stabilized blood plasma at 37° C.; settings: mixture of isomers, 1.1 mg, four hour period
[4] = 5% acetic acid 100° C.; for % Oxycodone, % IVA-IVD in hydrolysis mixture: unreacted oxycodone + four isomers of Formula IV; for % Oxycodone, % IVA-IVD in hydrolysis mixture / % Oxycodone, % Va-Vd in hydrolysis mixture: 1 mg/ml; for % Oxycodone, % Va-Vd in hydrolysis mixture: unreacted oxycodone + four isomers of Formula V
[5] = Hydrolysis in Simulated Gastric Fluid (SGF) at 37° C., LC/MS; settings: oxycodone 2,4-pentanediol ketal isomers + unreacted oxycodone, 2 mg/nil, SGF 37° C.

With `COc1ccc2c3c1O[C@H]1C4(CCC5(O)[C@@H](C2)N(C)CC[C@]315)OC(C)CC(C)O4` (some centres unmarked) [Formula IV, oxycodone 2,4-pentanediol ketal] the “time at which about 50% of the oxycodone is released” value ([1]; mixture of isomers) was “about 2.9 hours”, the “time by which about (almost) 90% oxycodone release occurs” value ([1]; mixture of isomers) was ≤ 25 h and the “degree of hydrolysis after 3 days” value ([2]; Coca Cola, pH 4 buffer, pH 7 buffer) was “very low degree of hydrolysis”. For the same compound, the “Hydrolysis to Oxycodone” value ([2]; Coca Cola, 23° C.) was 5%, the “Hydrolysis to Oxycodone” value ([2]; pH 4 Buffer, 37° C.) was 4% and the “Hydrolysis to Oxycodone” value ([2]; pH 7 Buffer, 37° C.) was 0%. For the same compound, the “ketal hydrolyzed to parent opioid in blood plasma” value [3] was “approximately 6%”, the “time to about 80% hydrolysis to oxycodone” value ([4]; FIG. 12) was “about 2 hours” and the “time to almost completely hydrolyze to oxycodone” value ([4]; FIG. 12, FIG. 13) was “about 10 hours”.

In the case of `COc1ccc2c3c1O[C@H]1C(=O)CC[C@@]4(O)[C@@H](C2)N(C)CC[C@]314` [Oxycodone, oxycodone, reference compound], the “% Oxycodone, % IVA-IVD in hydrolysis mixture” value (“% Oxycodone, % IVA-IVD” for short) ([1]; 0 h) is reported as 11.4%, the “% Oxycodone, % IVA-IVD” value ([1]; 0.583 h) is reported as 25.5% and the “% Oxycodone, % IVA-IVD” value ([1]; 1.167 h) is reported as 33%. For the same compound, the “% Oxycodone, % IVA-IVD” value ([1]; 1.75 h) was 44%, the “% Oxycodone, % IVA-IVD” value ([1]; 2.33 h) was 47.6% and the “% Oxycodone, % IVA-IVD” value ([1]; 2.92 h) was 50.9%. The “% Oxycodone, % IVA-IVD” value ([1]; 4 h) was 56.8%, the “% Oxycodone, % IVA-IVD” value ([1]; 6.5 h) was 66% and the “% Oxycodone, % IVA-IVD” value ([1]; 9.75 h) was 72.6%. The “% Oxycodone, % IVA-IVD” value ([1]; 13.75 h) was 79.7%, the “% Oxycodone, % IVA-IVD” value ([1]; 25 h) was 86.4% and the “Oxycodone in hydrolysis mixture” value ([1]; 0 h) was 1.3. The “Oxycodone in hydrolysis mixture” value ([1]; 0.75 h) was 28.5, the “Oxycodone in hydrolysis mixture” value ([1]; 1.5 h) was 46 and the “Oxycodone in hydrolysis mixture” value ([1]; 3.33 h) was 81.2. For the same compound, the “Oxycodone in hydrolysis mixture” value ([1]; 6 h) was 95.3, the “Oxycodone in hydrolysis mixture” value ([1]; 8 h) was 97.9 and the “% Oxycodone, % IVD in hydrolysis mixture” value ([1]; 0 h) was 0.8%. For the same compound, the “% Oxycodone, % IVD in hydrolysis mixture” value ([1]; 0.17 h) was 26.9%, the “% Oxycodone, % IVD in hydrolysis mixture” value ([1]; 0.33 h) was 55.2% and the “% Oxycodone, % IVD in hydrolysis mixture” value ([1]; 1 h) was 89.2%. The “% Oxycodone, % IVD in hydrolysis mixture” value ([1]; 2 h) was 98%, the “% Oxycodone, % Ketal a, b in hydrolysis mixture” value ([1]; 0 h) was 0.3% and the “% Oxycodone, % Ketal a, b in hydrolysis mixture” value ([1]; 0.33 h) was 12.1%. For the same compound, the “% Oxycodone, % Ketal a, b in hydrolysis mixture” value ([1]; 1 h) was 26.5%, the “% Oxycodone, % Ketal a, b in hydrolysis mixture” value ([1]; 2 h) was 40.7% and the “% Oxycodone, % Ketal a, b in hydrolysis mixture” value ([1]; 4 h) was 56.1%. For the same compound, the “% Oxycodone, % Ketal A, B in hydrolysis mixture” value ([1]; 0 h) was 27.2%, the “% Oxycodone, % Ketal A, B in hydrolysis mixture” value ([1]; 0.56 h) was 28.1% and the “% Oxycodone, % Ketal A, B in hydrolysis mixture” value ([1]; 1.25 h) was 33.8%. The “% Oxycodone, % Ketal A, B in hydrolysis mixture” value ([1]; 2 h) was 37.4%, the “% Oxycodone, % Ketal A, B in hydrolysis mixture” value ([1]; 4.45 h) was 56.4% and the “% Oxycodone, % IVA-IVD” value ([4]; 0 h) was 10.3%. For the same compound, the “% Oxycodone, % IVA-IVD” value ([4]; 0.5 h) was 55.8%, the “% Oxycodone, % IVA-IVD” value ([4]; 1 h) was 69.6% and the “% Oxycodone, % IVA-IVD” value ([4]; 2 h) was 83.9%. The “% Oxycodone, % IVA-IVD” value ([4]; 4.35 h) was 87.9%, the “% Oxycodone, % IVA-IVD” value ([4]; 10 h) was 95.2% and the “% Oxycodone, % Va-Vd in hydrolysis mixture” value (“% Oxycodone, % Va-Vd” for short) ([4]; 0 h) was 1%. For the same compound, the “% Oxycodone, % Va-Vd” value ([4]; 0.33 h) was 31.8%, the “% Oxycodone, % Va-Vd” value ([4]; 0.67 h) was 46.4% and the “% Oxycodone, % Va-Vd” value ([4]; 1 h) was 56.5%. For the same compound, the “% Oxycodone, % Va-Vd” value ([4]; 2 h) was 72.8%, the “% Oxycodone, % Va-Vd” value ([4]; 4 h) was 85.4% and the “Oxycodone, Ketal A-D in hydrolysis mixture” value (“Oxycodone, Ketal A-D” below) ([5]; 0 h) was 7.3. For the same compound, the “Oxycodone, Ketal A-D” value ([5]; 0.58 h) was 19.9, the “Oxycodone, Ketal A-D” value ([5]; 1.25 h) was 35.3 and the “Oxycodone, Ketal A-D” value ([5]; 2 h) was 43. For the same compound, the “Oxycodone, Ketal A-D” value ([5]; 3 h) was 51 and the “Oxycodone, Ketal A-D” value ([5]; 4 h) was 58.7.
